Patent US20240316045A1, “CYCLOPROPYLAMIDE COMPOUNDS AGAINST PARASITES IN FISH” (Intervet Inc., priority 2021, published 2024)

Legend:
[1] = tested on: Copepodids (juvenile sea lice stage of Lepeophtheirus salmonis); assay: Juvenile sea lice contact assay; settings: approx. 24 hours continuous exposure, read-out: Sea lice inhibition (% of dead+damaged copepodids); for inhibition at 0.01 µM: test concentration 10 nM; for inhibition at 0.1 µM: test concentration 100 nM
Experimental: Copepodids (juvenile sea lice stage of Lepeophtheirus salmonis) were exposed to seawater spiked with declining concentrations of a test compound (dissolved in a DMSO sea-water mixture). Sea lice inhibition (% of dead+damaged copepodids) was assessed after approximately 24 hours of continuous exposure. The vitality of used parasites was confirmed in a negative (solvent) control group.

[2] = tested on: Mobile stages of sea lice (pre-adults, adults of Lepeophtheirus salmonis); assay: Adult sea lice contact assay; settings: pre-adult/adult L. salmonis, assessed after approx. 1 and 24 hours, time of EC50 not stated, read-out: EC50 (sea lice inhibition, dead+damaged)
Experimental: Mobile stages of sea lice (i.e., pre-adults, adults of Lepeophtheirus salmonis) were exposed to seawater spiked with declining concentrations of a test compound (dissolved in a PEG sea-water mixture). Sea lice inhibition (% of dead+damaged sea lice) was assessed after approximately 1 and 24 hours of continuous exposure in comparison to a negative (solvent) control group.

Cc1ccccc1NC(=O)c1cc(NC(=O)C2C(c3cc(Cl)cc(Cl)c3)C2(Cl)Cl)ccc1Cl (centres unmarked) [Compound 1000]
inhibition at 0.01 µM [1]: 100%

Cc1ccc(NC(=O)C2C(c3cc(Cl)cc(Cl)c3)C2(Cl)Cl)cc1C(=O)Nc1ccc(F)cc1 (centres unmarked) [Compound 1001]
inhibition at 0.1 µM [1]: 100%

O=C(Nc1ccccc1)c1cc(NC(=O)C2C(c3cc(Cl)cc(Cl)c3)C2(Cl)Cl)ccc1Cl (centres unmarked) [Compound 1004]
inhibition at 0.01 µM [1]: 80%

N#Cc1cccc(NC(=O)c2cc(NC(=O)C3C(c4cc(Cl)cc(Cl)c4)C3(Cl)Cl)ccc2Cl)c1 (centres unmarked) [Compound 1005]
inhibition at 0.1 µM [1]: 100%

O=C(Nc1c(F)cc(F)cc1F)c1cc(NC(=O)C2C(c3cc(Cl)cc(Cl)c3)C2(Cl)Cl)ccc1Cl (centres unmarked) [Compound 1006]
EC50 [2]: ≤ 1 nM

O=C(Nc1cccnc1)c1cc(NC(=O)C2C(c3cc(Cl)cc(Cl)c3)C2(Cl)Cl)ccc1Cl (centres unmarked) [Compound 1008]
inhibition at 0.1 µM [1]: 100%

O=C(Nc1ccc(Cl)nc1)c1cc(NC(=O)C2C(c3cc(Cl)cc(Cl)c3)C2(Cl)Cl)ccc1Cl (centres unmarked) [Compound 1010]
inhibition at 0.1 µM [1]: 100%

N#Cc1ccc(NC(=O)c2cc(NC(=O)C3C(c4cc(Cl)cc(Cl)c4)C3(Cl)Cl)ccc2Cl)cn1 (centres unmarked) [Compound 1011]
inhibition at 0.01 µM [1]: 100%

Cc1cc(Cl)cc(C2C(C(=O)Nc3ccc(Cl)c(C(=O)Nc4ccc(F)cc4)c3)C2(Cl)Cl)c1 (centres unmarked) [Compound 1016]
inhibition at 0.1 µM [1]: 100%

Cc1cc(Cl)cc(C2C(C(=O)Nc3ccc(Cl)c(C(=O)Nc4c(F)cccc4F)c3)C2(Cl)Cl)c1 (centres unmarked) [Compound 1018]
inhibition at 0.1 µM [1]: 100%

O=C(Nc1ccc(F)cc1)c1cc(NC(=O)C2C(c3cc(Cl)cc(Cl)c3)C2(Cl)Cl)ccc1Cl (centres unmarked) [Compound 1021]
inhibition at 0.1 µM [1]: 100%

CN(C(=O)c1cc(NC(=O)C2C(c3cc(Cl)cc(Cl)c3)C2(Cl)Cl)ccc1Cl)c1ccc(F)cc1 (centres unmarked) [Compound 1022]
inhibition at 0.1 µM [1]: ≥ 80%

N#Cc1cc(F)ccc1NC(=O)c1cc(NC(=O)C2C(c3cc(Cl)cc(Cl)c3)C2(Cl)Cl)ccc1Cl (centres unmarked) [Compound 1026]
inhibition at 0.1 µM [1]: 100%

O=C(Nc1ncc(F)cn1)c1cc(NC(=O)C2C(c3cc(Cl)cc(Cl)c3)C2(Cl)Cl)ccc1Cl (centres unmarked) [Compound 1028]
inhibition at 0.1 µM [1]: 100%

O=C(Nc1cccc(F)n1)c1cc(NC(=O)C2C(c3cc(Cl)cc(Cl)c3)C2(Cl)Cl)ccc1Cl (centres unmarked) [Compound 1030]
inhibition at 0.1 µM [1]: ≥ 80%

Cc1cc(F)cnc1NC(=O)c1cc(NC(=O)C2C(c3cc(Cl)cc(Cl)c3)C2(Cl)Cl)ccc1Cl (centres unmarked) [Compound 1031]
inhibition at 0.1 µM [1]: 100%

O=C(Nc1cncnc1)c1cc(NC(=O)C2C(c3cc(Cl)cc(Cl)c3)C2(Cl)Cl)ccc1Cl (centres unmarked) [Compound 1038]
inhibition at 0.01 µM [1]: 80%

N#Cc1cccc(F)c1NC(=O)c1cc(NC(=O)C2C(c3cc(Cl)cc(Cl)c3)C2(Cl)Cl)ccc1Cl (centres unmarked) [Compound 1040]
inhibition at 0.1 µM [1]: 100%

O=C(Nc1ncc(F)cc1F)c1cc(NC(=O)[C@H]2[C@H](c3ccc(Cl)c(Cl)c3)C2(Cl)Cl)ccc1Cl [Compound 1041]
EC50 [2]: 1 to 10 nM

O=C(Nc1ncc(F)cc1F)c1cc(NC(=O)[C@H]2[C@H](c3ccc(F)c(Cl)c3)C2(Cl)Cl)ccc1Cl [Compound 1042]
EC50 [2]: 1 to 10 nM

Nc1cccc(NC(=O)c2cc(NC(=O)C3C(c4cc(Cl)cc(Cl)c4)C3(Cl)Cl)ccc2Cl)n1 (centres unmarked) [Compound 1045]
inhibition at 0.1 µM [1]: 100%

Nc1cccc(NC(=O)c2cc(NC(=O)C3C(c4ccc(F)c(Cl)c4)C3(Cl)Cl)ccc2Cl)n1 (centres unmarked) [Compound 1046]
inhibition at 0.1 µM [1]: 100%

N#Cc1cc(Cl)cc(C2C(C(=O)Nc3ccc(Cl)c(C(=O)Nc4ncc(F)cc4F)c3)C2(Cl)Cl)c1 (centres unmarked) [Compound 1048]
inhibition at 0.1 µM [1]: 100%

O=C(Nc1cncc([N+](=O)[O-])c1)c1cc(NC(=O)C2C(c3cc(Cl)cc(Cl)c3)C2(Cl)Cl)ccc1Cl (centres unmarked) [Compound 1051]
inhibition at 0.1 µM [1]: 100%

O=C(Nc1ccnc(Cl)c1)c1cc(NC(=O)C2C(c3cc(Cl)cc(Cl)c3)C2(Cl)Cl)ccc1Cl (centres unmarked) [Compound 1055]
inhibition at 0.1 µM [1]: ≥ 80%

O=C(Nc1ncc(F)c(I)c1F)c1cc(NC(=O)C2C(c3cc(Cl)cc(Cl)c3)C2(Cl)Cl)ccc1Cl (centres unmarked) [Compound 1060]
inhibition at 0.1 µM [1]: 100%

Cc1cc(NC(=O)c2cc(NC(=O)C3C(c4cc(Cl)cc(Cl)c4)C3(Cl)Cl)ccc2Cl)cnc1F (centres unmarked) [Compound 1064]
inhibition at 0.1 µM [1]: 100%

COc1cc(NC(=O)c2cc(NC(=O)C3C(c4cc(Cl)cc(Cl)c4)C3(Cl)Cl)ccc2Cl)ccn1 (centres unmarked) [Compound 1069]
inhibition at 0.1 µM [1]: 100%

COc1ccc(NC(=O)c2cc(NC(=O)C3C(c4cc(Cl)cc(Cl)c4)C3(Cl)Cl)ccc2Cl)cn1 (centres unmarked) [Compound 1075]
inhibition at 0.1 µM [1]: 100%

COc1ccc(NC(=O)c2cc(NC(=O)C3C(c4ccc(F)c(Cl)c4)C3(Cl)Cl)ccc2Cl)cn1 (centres unmarked) [Compound 1076]
inhibition at 0.1 µM [1]: ≥ 80%

O=C(Nc1ncc(F)cc1F)c1cc(NC(=O)C2C(c3cc(Cl)cc(C(F)F)c3)C2(Cl)Cl)ccc1Cl (centres unmarked) [Compound 1079]
inhibition at 0.1 µM [1]: 100%

O=C(Nc1ncc(F)cc1F)c1cc(NC(=O)C2C(c3ccc(Cl)c(C(F)F)c3)C2(Cl)Cl)ccc1Cl (centres unmarked) [Compound 1080]
inhibition at 0.1 µM [1]: 100%

O=C(Nc1ncc(F)cc1F)c1cc(NC(=O)C2C(c3cc(F)cc(C(F)F)c3)C2(Cl)Cl)ccc1Cl (centres unmarked) [Compound 1081]
inhibition at 0.1 µM [1]: 100%

O=C(Nc1ncc(F)cc1F)c1cc(NC(=O)C2C(c3ccc(F)c(C(F)F)c3)C2(Cl)Cl)ccc1Cl (centres unmarked) [Compound 1082]
inhibition at 0.1 µM [1]: 100%

O=C(Nc1ncc(F)cc1F)c1cc(NC(=O)C2C(c3ccc(C(F)F)c(Cl)c3)C2(Cl)Cl)ccc1Cl (centres unmarked) [Compound 1083]
inhibition at 0.1 µM [1]: 100%

O=C(Nc1ncc(F)cc1F)c1cc(NC(=O)C2C(c3cccc(C(F)F)c3)C2(Cl)Cl)ccc1Cl (centres unmarked) [Compound 1085]
inhibition at 0.1 µM [1]: 100%

O=C(Nc1ccc(F)cc1F)c1cc(NC(=O)[C@H]2[C@H](c3cc(Cl)cc(Cl)c3)C2(Cl)Cl)ccc1F [Compound 1091]
EC50 [2]: 1 to 10 nM

O=C(Nc1c(F)cc(F)cc1F)c1cc(NC(=O)[C@H]2[C@H](c3cc(Cl)cc(Cl)c3)C2(Cl)Cl)ccc1Cl [Compound 1092]
EC50 [2]: 1 to 25 nM

Nc1c(F)ccc(NC(=O)c2cc(NC(=O)C3C(c4cc(F)cc(C(F)(F)F)c4)C3(Cl)Cl)ccc2Cl)c1F (centres unmarked) [Compound 1132]
inhibition at 0.1 µM [1]: 100%

Nc1c(F)ccc(NC(=O)c2cc(NC(=O)C3C(c4cccc(F)c4)C3(Cl)Cl)ccc2Cl)c1F (centres unmarked) [Compound 1227]
inhibition at 0.1 µM [1]: 100%

Nc1c(F)ccc(NC(=O)c2cc(NC(=O)C3C(c4cccc(C(F)(F)F)c4)C3(Cl)Cl)ccc2Cl)c1F (centres unmarked) [Compound 1243]
inhibition at 0.1 µM [1]: 100%

Nc1c(F)ccc(NC(=O)c2cc(NC(=O)C3C(c4cccc(Cl)c4)C3(Cl)Cl)ccc2Cl)c1F (centres unmarked) [Compound 1248]
inhibition at 0.1 µM [1]: 100%

O=C(Nc1ccc2nccn2c1)c1cc(NC(=O)C2C(c3cc(Cl)cc(Cl)c3)C2(Cl)Cl)ccc1Cl (centres unmarked) [Compound 1373]
inhibition at 0.1 µM [1]: 100%

O=C(Nc1ncc(F)cc1F)c1c(Cl)ccc(NC(=O)C2C(c3cc(Cl)cc(Cl)c3)C2(Cl)Cl)c1F (centres unmarked) [Compound 1381]
inhibition at 0.1 µM [1]: 100%

Cc1ccc(NC(=O)C2C(c3ccc(Cl)c(Cl)c3)C2(Cl)Cl)c(F)c1C(=O)Nc1ncc(F)cc1F (centres unmarked) [Compound 1382]
inhibition at 0.1 µM [1]: 100%

O=C(Nc1ncc(F)cc1F)c1cc(NC(=O)C2C(c3cc(Cl)c(Cl)c(Cl)c3)C2(Cl)Cl)ccc1Cl (centres unmarked) [Compound 1384]
inhibition at 0.1 µM [1]: 100%

O=C(Nc1ccc(F)cc1F)c1cc(NC(=O)C2C(c3cc(C(F)(F)F)cc(C(F)(F)F)c3)C2(Cl)Cl)ccc1Cl (centres unmarked) [Compound 1386]
inhibition at 0.01 µM [1]: 80%
